Assay results as given in the NIST ThermoML archive (doi:10.1007/s10765-005-8591-6).
± gives the expanded uncertainty stated by the source.

Key:
[1] = Fluid (supercritical or subcritical phases), Constant-volume piezometry
[2] = xn = mol fraction of the nth substance listed; settings: Fluid (supercritical or subcritical phases), Constant-volume piezometry, x1 = 1

FCF [difluoromethane]
[1]
Settings | mass density [kg/m3]
313.16 K, 3353.7 kPa | 900.17 ± 0.41
316.15 K, 4967.1 kPa | 899.97 ± 0.41
319.15 K, 6571.4 kPa | 899.77 ± 0.41
322.15 K, 8162.4 kPa | 899.57 ± 0.42
328.16 K, 11400 kPa | 899.19 ± 0.43
334.15 K, 14753 kPa | 898.82 ± 0.44
337.15 K, 16580 kPa | 898.63 ± 0.44

FCF [difluoromethane] + FC(F)C(F)(F)F
[2]
Settings | mass density [kg/m3]
313.16 K, 3353.7 kPa | 900.17 ± 0.41
316.15 K, 4967.1 kPa | 899.97 ± 0.41
319.15 K, 6571.4 kPa | 899.77 ± 0.41
322.15 K, 8162.4 kPa | 899.57 ± 0.42
328.16 K, 11400 kPa | 899.19 ± 0.43
334.15 K, 14753 kPa | 898.82 ± 0.44
337.15 K, 16580 kPa | 898.63 ± 0.44

FC(F)C(F)(F)F [pentafluoroethane]
[1]
Settings | mass density [kg/m3]
258.16 K, 4595.6 kPa | 1403.78 ± 0.63
261.15 K, 6579.8 kPa | 1403.47 ± 0.63
262.14 K, 7284.6 kPa | 1403.36 ± 0.63
267.16 K, 10809 kPa | 1402.84 ± 0.64
270.19 K, 13003 kPa | 1402.53 ± 0.64
273.15 K, 15076 kPa | 1402.23 ± 0.65
275.15 K, 16572 kPa | 1402.04 ± 0.65
